# Measurements reported in patent US9738932B2, “Biomarkers for cardiovascular side-effects induced by cox-2 inhibitory compounds” (FIRALIS SAS, priority 2005, dated 2017).
# Tested on: mRNA expression in cardiovascular tissues
# Test: Affymetrix GeneChip mRNA expression profiling of monkey tissues (iliac vein, pulmonary vein, aorta, carotid artery, heart) after two-week oral-gavage treatment
# Settings: iliac vein
# [1] = group average (Vioxx without A60055)
# [2] = group avg, Vioxx without A60055
smiles,measurement,setting,value
"Cc1ccc(Nc2c(F)cccc2Cl)c(CC(=O)O)c1 [COX189, Lumiracoxib]","ACE (209749_s_at) mRNA expression, Avg fold changes vs control",[1],0.8 fold
same,"B2M (216231_s_at) mRNA expression, Avg fold changes vs control",[1],1.1 fold
same,"BCL6 (215990_s_at) mRNA expression, Avg fold changes vs control",[1],1.4 fold
same,"BTN2A2 (205298_s_at) mRNA expression, Avg fold changes vs control",[1],1.3 fold
same,"CCR1 (205098_at) mRNA expression, Avg fold changes vs control",[1],0.8 fold
same,"CD2 (205831_at) mRNA expression, Avg fold changes vs control",[1],1.1 fold
same,"CD48 (204118_at) mRNA expression, Avg fold changes vs control",[1],1.0 fold
same,"CD53 (203416_at) mRNA expression, Avg fold changes vs control",[1],1.0 fold
same,"CDC2 (210559_s_at) mRNA expression, Avg fold changes vs control",[1],1.0 fold
same,"CYBB (203922_s_at) mRNA expression, Avg fold changes vs control",[1],0.9 fold
same,"EMP3 (203729_at) mRNA expression, Avg fold changes vs control",[1],0.8 fold
same,"FCER1G (204232_at) mRNA expression, Avg fold changes vs control",[1],1.0 fold
same,"FCGR2A (203561_at) mRNA expression, Avg fold changes vs control",[1],0.8 fold
same,"FCGRT (218831_s_at) mRNA expression, Avg fold changes vs control",[1],1.0 fold
same,"FKBP11 (219117_s_at) mRNA expression, Avg fold changes vs control",[1],0.7 fold
same,"FKBP11 (219118_at) mRNA expression, Avg fold changes vs control",[1],0.8 fold
same,"GP6 (220336_s_at) mRNA expression, Avg fold changes vs control",[1],1.2 fold
same,"HCLS1 (202957_at) mRNA expression, Avg fold changes vs control",[1],1.0 fold
same,"HEM1 (209734_at) mRNA expression, Avg fold changes vs control",[1],1.0 fold
same,"HLA-A (210514_x_at) mRNA expression, Avg fold changes vs control",[1],1.2 fold
same,"HLA-A (213932_x_at) mRNA expression, Avg fold changes vs control",[1],1.2 fold
same,"HLA-C (211799_x_at) mRNA expression, Avg fold changes vs control",[1],1.5 fold
same,"HLA-E (200904_at) mRNA expression, Avg fold changes vs control",[1],1.0 fold
same,"HLA-F (221978_at) mRNA expression, Avg fold changes vs control",[1],1.4 fold
same,"ICAM1 (202637_s_at) mRNA expression, Avg fold changes vs control",[1],1.0 fold
same,"IL13RA1 (210904_s_at) mRNA expression, Avg fold changes vs control",[1],1.1 fold
same,"PIK3CD (203879_at) mRNA expression, Avg fold changes vs control",[1],1.1 fold
same,"PRKCBP1 (209048_s_at) mRNA expression, Avg fold changes vs control",[1],1.1 fold
same,"PRKCBP1 (209049_s_at) mRNA expression, Avg fold changes vs control",[1],0.9 fold
same,"PTPN7 (204852_s_at) mRNA expression, Avg fold changes vs control",[1],1.0 fold
same,"SIGIRR (52940_at) mRNA expression, Avg fold changes vs control",[1],0.9 fold
same,"STAT1 (200887_s_at) mRNA expression, Avg fold changes vs control",[1],1.3 fold
same,"STAT1 (AFFX-HUMISGF3A/M97935_3_at) mRNA expression, Avg fold changes vs control",[1],1.3 fold
same,"STAT3 (208992_s_at) mRNA expression, Avg fold changes vs control",[1],1.0 fold
same,"TCIRG1 (204158_s_at) mRNA expression, Avg fold changes vs control",[1],1.0 fold
same,"THY1 (213869_x_at) mRNA expression, Avg fold changes vs control",[1],0.9 fold
same,"TMPO (209753_s_at) mRNA expression, Avg fold changes vs control",[1],0.9 fold
same,"TMSB10 (217733_s_at) mRNA expression, Avg fold changes vs control",[1],1.1 fold
same,"TNFRSF21 (218856_at) mRNA expression, Avg fold changes vs control",[1],1.1 fold
same,"TRB@ (210915_x_at) mRNA expression, Avg fold changes vs control",[1],1.3 fold
same,"TRB@ (213193_x_at) mRNA expression, Avg fold changes vs control",[1],1.2 fold
same,209813_x_at avg fold change vs control,[2],1.0 fold
same,AIF1 (209901_x_at) avg fold change vs control,[2],0.7 fold
same,AIF1 (213095_x_at) avg fold change vs control,[2],0.5 fold
same,B2M (201891_s_at) avg fold change vs control,[2],1.0 fold
same,BCL3 (204908_s_at) avg fold change vs control,[2],1.0 fold
same,BTN3A1 (207485_x_at) avg fold change vs control,[2],2.1 fold
same,BTN3A3 (38241_at) avg fold change vs control,[2],1.0 fold
same,BTN3A3 (204820_s_at) avg fold change vs control,[2],1.1 fold
same,BTN3A3 (204821_at) avg fold change vs control,[2],1.5 fold
same,C1QA (218232_at) avg fold change vs control,[2],1.0 fold
same,C1QB (202953_at) avg fold change vs control,[2],1.0 fold
same,C1R (212067_s_at) avg fold change vs control,[2],1.0 fold
same,C1S (208747_s_at) avg fold change vs control,[2],1.0 fold
same,C2 (203052_at) avg fold change vs control,[2],1.1 fold
same,C4A (208451_s_at) avg fold change vs control,[2],0.9 fold
same,CASP1 (209970_x_at) avg fold change vs control,[2],1.1 fold
same,CASP1 (211367_s_at) avg fold change vs control,[2],1.2 fold
same,CCL2 (216598_s_at) avg fold change vs control,[2],1.6 fold
same,CCL3 (205114_s_at) avg fold change vs control,[2],0.9 fold
same,CCL5 (1405_i_at) avg fold change vs control,[2],0.9 fold
same,CCL8 (214038_at) avg fold change vs control,[2],1.7 fold
same,CCL18 (209924_at) avg fold change vs control,[2],2.3 fold
same,CCL19 (210072_at) avg fold change vs control,[2],1.4 fold
same,CCNB2 (202705_at) avg fold change vs control,[2],1.4 fold
same,CD3D (213539_at) avg fold change vs control,[2],1.7 fold
same,CD8A (205758_at) avg fold change vs control,[2],1.2 fold
same,CD14 (201743_at) avg fold change vs control,[2],0.7 fold
same,CD74 (209619_at) avg fold change vs control,[2],1.0 fold
same,CLU (208791_at) avg fold change vs control,[2],1.0 fold
same,CMAH (210571_s_at) avg fold change vs control,[2],1.1 fold
same,CTSC (201487_at) avg fold change vs control,[2],1.1 fold
same,CTSK (202450_s_at) avg fold change vs control,[2],1.2 fold
same,CTSS (202902_s_at) avg fold change vs control,[2],1.1 fold
same,CX3CR1 (205898_at) avg fold change vs control,[2],1.2 fold
same,CXCL9 (203915_at) avg fold change vs control,[2],1.7 fold
same,CXCL10 (204533_at) avg fold change vs control,[2],1.4 fold
same,CXCL11 (210163_at) avg fold change vs control,[2],2.6 fold
same,CXCL11 (211122_s_at) avg fold change vs control,[2],2.3 fold
same,CXCL12 (209687_at) avg fold change vs control,[2],0.8 fold
same,CYBA (203028_s_at) avg fold change vs control,[2],1.2 fold
same,CYBB (203923_s_at) avg fold change vs control,[2],1.0 fold
same,CYP1B1 (202436_s_at) avg fold change vs control,[2],1.3 fold
same,CYP3A5 (214234_s_at) avg fold change vs control,[2],1.3 fold
same,CYP11B1 (214630_at) avg fold change vs control,[2],1.0 fold
same,DUSP6 (208893_s_at) avg fold change vs control,[2],0.9 fold
same,ECGF1 (204858_s_at) avg fold change vs control,[2],1.7 fold
same,ECM1 (209365_s_at) avg fold change vs control,[2],1.0 fold
same,F2RL1 (206429_at) avg fold change vs control,[2],1.8 fold
same,F13A1 (203305_at) avg fold change vs control,[2],1.1 fold
same,FCGR1A (214511_x_at) avg fold change vs control,[2],1.0 fold
same,FCGR3A (204006_s_at) avg fold change vs control,[2],1.0 fold
same,G1P2 (205483_s_at) avg fold change vs control,[2],1.5 fold
same,GZMB (210164_at) avg fold change vs control,[2],0.8 fold
same,HCA127 (220040_x_at) avg fold change vs control,[2],0.9 fold
same,HCK (208018_s_at) avg fold change vs control,[2],1.1 fold
same,HFE (210864_x_at) avg fold change vs control,[2],1.3 fold
